According to patent publication US20220000816A1, “COMPOSITION AND METHOD OF INHIBITING ACTIVITY OF MINERALOCORTICOID RECEPTOR BY APPLYING IT TO THE SKIN” (AMOREPACIFIC CORPORATION, priority 2018, published 2022):

Test system: mineralocorticoid receptor
Assay: MMTV-luciferase reporter assay of mineralocorticoid receptor activity in CV-1 cells stimulated with dexamethasone
Format: cell-based
Conditions: 10 μg/ml compound, after 2 hours dexamethasone (1 nM), cultivated 24 hours, normalized to Renilla luciferase, FIG. 2
Protocol: RNA was separated from a CV-1 cell and PCR was performed using reverse transcriptase, so gene expressions of a glucocorticoid receptor (GR) and a mineralocorticoid receptor (MR) were confirmed, and the results are shown in FIG. 1.
The CV-1 cell was cultivated in a 24-well flat incubator. After 24 hours, the incubating medium was replaced with a 10% charcoal dextran-treated FBS-DMEM, and then after 4 hours, mixed DNA of a MMTV-luciferase reporter plasmid and an internal control group of a pRL-SV-40 plasmid was transfected using TransFast reagent (Promega). After 24 hours, it was treated with 10 μg/ml of the compound (Ramidus AB) represented by Chemical Formula 1-1, and after 2 hours, was treated with dexamethasone (1 nM), and then cultivated for 24 hours. The luciferase activity in the cell lysate was measured using a Dual-Luciferase Reporter Assay System (Promega), and the transfection efficiency was normalized by revising Renilla luciferase activity to measure a relative luciferase activity, and the results are shown in FIG. 2.

CC(C)c1ccc2c(c1)CC[C@H]1[C@@H](C)C(C(=O)O)CC[C@]21C (stereo partly shown) [Chemical Formula 1-1]
relative luciferase activity (activity of the mineralocorticoid receptor by dexamethasone): deteriorated activity of the mineralocorticoid receptor
